In patent US20230081064A1, “FORMULATIONS FOR DELIVERY TO THE EAR” (Spiral Therapeutics Inc., priority 2021, published 2023) one finds solubility data, which are given here for one compound.

A short description of this data set: Solubility of the active agent in water. Format: physicochemical.

In brackets after ≈: the same amount, converted by molar mass.

For `COc1ccc2[nH]cc(CCNC(=O)CC3C(=O)N(CCc4ccc(Cl)cc4Cl)CC(=O)N3CCc3cccs3)c2c1` (stereo not shown) [LPT99, 2-(4-(2,4-Dichlorophenethyl)-3,6-dioxo-1-(2-(thiophen-2-yl)ethyl)piperazin-2-yl)-N-(2-(5-methoxy-1H-indol-3-yl)ethyl)acetamide], the solubility (usually how much of the substance goes into solution per volume) was around 2.4 µM (≈ 1.51 µg/mL).
